In the supplement of paper PMC12317010:
Where a name gives a salt, the structure may show the parent alone.

Assay: collision cross section in nitrogen (drift tube, single-field); higher = larger gas-phase ion size
[1] = ion type: [M+H], ion source: APCI, ion mode: Positive
[2] = ion type: [M+H], ion source: ESI, ion mode: Positive
[3] = ion type: [M+Na], ion source: ESI, ion mode: Positive
[4] = ion type: [M-H], ion source: ESI, ion mode: Negative
[5] = ion type: [M+], ion source: APCI, ion mode: Positive
[6] = ion source: APCI, ion mode: Positive, ion type: [M]+ (permanent cation)
[7] = ion source: ESI, ion mode: Positive, ion type: [M]+ (permanent cation)
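Note: chemical standards at 10 µM analysed by drift tube IMS-QTOF MS in about 3.95 torr nitrogen, mean of duplicate injections differing ≤1%, mass error below 10 ppm.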

Row | SMILES | collision cross section in nitrogen [3] [Å²] | collision cross section in nitrogen [4] [Å²] | also measured
1 | O=C(Nc1ccccc1)c1ccccc1I [Benodanil] | 161.1 | 155.4 | collision cross section in nitrogen [1]: 146.6 Å²; collision cross section in nitrogen [2]: 146.3 Å²
2 | COC(=O)c1ccccc1CS(=O)(=O)NC(=O)Nc1nc(OC)cc(OC)n1 [Bensulfuron-methyl] | 197.8 |  | 
3 | CC(C)N1C(=O)c2ccccc2NS1(=O)=O [Bentazone] |  | 146.9 | 
4 | c1ccc2cc3c(ccc4ccccc43)cc2c1 [Benz(a)anthracene] |  |  | collision cross section in nitrogen [5]: 146.3 Å²
5 | O=C(O)CONC(=O)c1ccccc1 [Benzadox] | 150.9 |  | 
6 | CCCCCCCC[N+](C)(C)Cc1ccccc1 [Benzalkonium chloride C8 (BAC C8)] |  |  | collision cross section in nitrogen [6]: 170.1 Å²; collision cross section in nitrogen [7]: 171.3 Å²
7 | CCCCCCCCCCCC[N+](C)(C)Cc1ccccc1 [Benzalkonium chloride C12 (BAC C12)] |  |  | collision cross section in nitrogen [6]: 193 Å²; collision cross section in nitrogen [7]: 193.9 Å²
8 | CCCCCCCCCCCCCCCC[N+](C)(C)Cc1ccccc1 [Benzalkonium chloride C16 (BAC C16)] |  |  | collision cross section in nitrogen [6]: 208.9 Å²
9 | CCCCCCCCCCCCCCCCCC[N+](C)(C)Cc1ccccc1 [Benzalkonium chloride C18 (BAC C18)] |  |  | collision cross section in nitrogen [6]: 215.1 Å²; collision cross section in nitrogen [7]: 216.6 Å²
10 | CCOC(=O)Cc1ccccc1 [Benzeneacetic acid, ethyl ester] |  | 144.3 | 
11 | N=C(N)c1ccccc1 [Benzenecarboximidamide, monohydrochloride] |  |  | collision cross section in nitrogen [1]: 124.7 Å²; collision cross section in nitrogen [2]: 125 Å²
12 | c1ccc2[nH]cnc2c1 [Benzimidazole] |  |  | collision cross section in nitrogen [1]: 121 Å²; collision cross section in nitrogen [2]: 121.8 Å²
13 | c1ccc2c(c1)ccc1ncccc12 [Benzo(f)quinoline] |  |  | collision cross section in nitrogen [1]: 134.7 Å²; collision cross section in nitrogen [2]: 134.8 Å²; collision cross section in nitrogen [5]: 130.3 Å²
14 | c1ccc2c(c1)c1cccc3ccc4cccc2c4c31 [Benzo[e]pyrene] |  |  | collision cross section in nitrogen [5]: 149.7 Å²
15 | c1ccc2cc3c(cc2c1)-c1cccc2cccc-3c12 [Benzo[k]fluoranthene] |  |  | collision cross section in nitrogen [5]: 151.3 Å²
16 | Oc1nc2ccccc2s1 [Benzothiazolone] |  | 123.7 | 
17 | CCCCOC(=O)c1ccccc1C(=O)OCc1ccccc1 [Benzyl butyl phthalate] | 178.3 |  | 
18 | CC[N+](CC)(CC)Cc1ccccc1 [Benzyl trialkyl ammonium compound C2:C2:C2 (BTAAC C2:C2:C2)] |  |  | collision cross section in nitrogen [7]: 143.1 Å²
19 | C[N+](C)(C)Cc1ccccc1 [Benzyltrimethylammonium chloride] |  |  | collision cross section in nitrogen [7]: 131.9 Å²
20 | C[N+](C)(C)Cc1ccccc1 [Benzyltrimethylammonium hydroxide] |  |  | collision cross section in nitrogen [7]: 131.3 Å²
21 | C[C@H]1C[C@H]2[C@@H]3CCC4=CC(=O)C=C[C@]4(C)[C@@]3(F)[C@@H](O)C[C@]2(C)[C@@]1(O)C(=O)COP(=O)(O)O [Betamethasone 21-phosphate disodium] | 211.7 | 199.8 | 
22 | C=C(c1ccc(C(=O)O)cc1)c1cc2c(cc1C)C(C)(C)CCC2(C)C [Bexarotene] |  | 208.7 | 
23 | COc1ccc(-c2ccccc2)cc1NNC(=O)OC(C)C [Bifenazate] | 185.7 |  | 

Row | SMILES | collision cross section in nitrogen [3] [Å²] | collision cross section in nitrogen [4] [Å²] | also measured
24 | COc1ccc(-c2coc3cc(O)cc(O)c3c2=O)cc1 [Biochanin A] | 175 | 168 | collision cross section in nitrogen [1]: 164.6 Å²; collision cross section in nitrogen [2]: 164.1 Å²
25 | CC(C)=C[C@@H]1[C@@H](C(=O)OCc2coc(Cc3ccccc3)c2)C1(C)C [Bioresmethrin] | 188.3 |  | 
26 | CC(C)c1cccc(C(C)C)c1N=C=Nc1c(C(C)C)cccc1C(C)C [Bis(2,6-diisopropylphenyl)carbodiimide] |  |  | collision cross section in nitrogen [1]: 189.6 Å²; collision cross section in nitrogen [2]: 190.5 Å²
27 | CCCCOCCOC(=O)CCCCCCCCC(=O)OCCOCCCC [Bis(2-butoxyethyl) decanedioate] | 197.8 |  | 
28 | CCCCOCCOC(=O)c1ccccc1C(=O)OCCOCCCC [Bis(2-butoxyethyl) phthalate] | 187.5 |  | 
29 | CCCCC(CC)COC(=O)CCCCCCCCC(=O)OCC(CC)CCCC (centres undefined) [Bis(2-ethylhexyl) decanedioate] | 224.2 |  | 
30 | CCCCC(CC)COC(=O)/C=C\C(=O)OCC(CC)CCCC (centres undefined) [Bis(2-ethylhexyl) maleate] | 207.2 |  | 
31 | CCCCC(CC)COP(=O)(O)OCC(CC)CCCC (centres undefined) [Bis(2-ethylhexyl) phosphate] | 201 | 187 | 
32 | CCCCC(CC)COC(=O)c1c(Br)c(Br)c(Br)c(Br)c1C(=O)OCC(CC)CCCC (centres undefined) [Bis(2-ethylhexyl) tetrabromophthalate] | 240.6 |  | 
33 | CCCCC(CC)COC(=O)CCCCC(=O)OCC(CC)CCCC (centres undefined) [Bis(2-ethylhexyl)hexanedioate] | 216.5 |  | 
34 | CN(C)c1ccc(C(=O)c2ccc(N(C)C)cc2)cc1 [Bis(4-(dimethylamino)phenyl)methanone] | 175.8 |  | collision cross section in nitrogen [1]: 166.8 Å²; collision cross section in nitrogen [2]: 166.5 Å²
35 | Oc1ccc(Cc2ccc(O)cc2)cc1 [Bis(4-hydroxyphenyl)methane] |  | 153.6 | 
36 | CC(C)(c1ccc(O)c(-c2ccccc2)c1)c1ccc(O)c(-c2ccccc2)c1 [BisOPP-A] |  | 204 | 
37 | CCCCOCCOCCOC(=O)CCCCC(=O)OCCOCCOCCCC [Bis[2-(2-butoxyethoxy)ethyl] adipate] | 198.8 |  | collision cross section in nitrogen [1]: 203.8 Å²; collision cross section in nitrogen [2]: 205.4 Å²
38 | c1cc(OCC2CO2)ccc1Cc1ccc(OCC2CO2)cc1 (centres undefined) [Bis[4-(glycidyloxy)phenyl]methane] | 169 |  | 
39 | CC(C)(c1ccc(OCC2CO2)cc1)c1ccc(OCC2CO2)cc1 (centres undefined) [Bisphenol A diglycidyl ether] | 176.7 |  | 
40 | Oc1ccc(C(c2ccc(O)cc2)(C(F)(F)F)C(F)(F)F)cc1 [Bisphenol AF] |  | 165.6 | 
41 | CCC(C)(c1ccc(O)cc1)c1ccc(O)cc1 [Bisphenol B] |  | 165.8 | 
42 | CC(c1ccc(O)cc1)c1ccc(O)cc1 [Bisphenol E] |  | 158.3 | 
43 | CC(C)(c1ccc(O)cc1)c1ccc(C(C)(C)c2ccc(O)cc2)cc1 [Bisphenol P] |  | 180.1 | 
44 | COc1cc(OC)nc(Oc2cccc(Oc3nc(OC)cc(OC)n3)c2C(=O)O)n1 [Bispyribac-sodium] | 198.6 | 187.4 | collision cross section in nitrogen [1]: 198.3 Å²; collision cross section in nitrogen [2]: 198.5 Å²
45 | Oc1c(Cl)cc(Cl)cc1Sc1cc(Cl)cc(Cl)c1O [Bithionol] |  | 168.8 | collision cross section in nitrogen [2]: 154.7 Å²
46 | O=C(Nc1ccccc1-c1ccc(Cl)cc1)c1cccnc1Cl [Boscalid] |  | 177.1 | collision cross section in nitrogen [2]: 175.5 Å²

Second part, led by results:

Row | collision cross section in nitrogen [3] [Å²] | collision cross section in nitrogen [4] [Å²] | SMILES | also measured
47 |  | 127.2 | O=S(=O)(O)c1ccccc1 [Benzenesulfonic acid] | 
48 |  | 158.5 | O=C(OCc1ccccc1)c1ccc(O)cc1 [Benzyl 4-hydroxybenzoate] | 
49 |  | 153.3 | O=C(OCc1ccccc1)c1ccccc1O [Benzyl salicylate] | 
50 | 191.9 |  | CCCCC(CC)COC(=O)CCCCC(=O)OCc1ccccc1 (centres undefined) [Benzyloctyl adipate] | 
51 | 202 | 188.5 | O=c1[nH]c2ccc(S(=O)CCN3CCC(Cc4ccc(F)cc4)CC3)cc2o1 (centres undefined) [Besonprodil] | collision cross section in nitrogen [1]: 203.6 Å²; collision cross section in nitrogen [2]: 203.4 Å²
52 | 133.3 |  | C[N+](C)(C)CC(=O)[O-] [Betaine] | collision cross section in nitrogen [2]: 121.4 Å²
53 |  | 215.5 | CCCCC(=O)O[C@]1(C(=O)CO)[C@@H](C)C[C@H]2[C@@H]3CCC4=CC(=O)C=C[C@]4(C)[C@@]3(F)[C@@H](O)C[C@@]21C [Betamethasone valerate] | 
54 | 215.2 |  | C[C@H]1C[C@H]2[C@@H]3CCC4=CC(=O)C=C[C@]4(C)[C@@]3(F)[C@@H](O)C[C@]2(C)[C@@]1(O)C(=O)CO [Betamethasone] | collision cross section in nitrogen [2]: 177.2 Å²
55 | 189 |  | CC(C)(Oc1ccc(CCNC(=O)c2ccc(Cl)cc2)cc1)C(=O)O [Bezafibrate] | collision cross section in nitrogen [1]: 178.5 Å²; collision cross section in nitrogen [2]: 177.8 Å²
56 | 159.6 | 155.5 | O=C(O)CCCC[C@@H]1SC[C@H]2NC(=O)N[C@@H]12 [Biotin] | collision cross section in nitrogen [1]: 149.9 Å²; collision cross section in nitrogen [2]: 149.3 Å²
57 | 222.3 |  | CCCCC(CC)COC(=O)CCCCCCCC(=O)OCC(CC)CCCC (centres undefined) [Bis(2-ethylhexyl) nonanedioate] | 
58 | 219.6 |  | CC(CCOC(=O)c1ccccc1C(=O)OCC[C@@H](C)CC(C)(C)C)CC(C)(C)C (some centres undefined) [Bis(3,5,5-trimethylhexyl) phthalate] | 
59 | 169.5 |  | C=C(C)C(=O)OCCOP(=O)(O)OCCOC(=O)C(=C)C [Bis(methacryloyloxyethyl) hydrogen phosphate] | 
60 | 182.7 | 174.3 | O=C1C=CC(=O)N1c1ccc(Cc2ccc(N3C(=O)C=CC3=O)cc2)cc1 [Bismaleimide] | collision cross section in nitrogen [1]: 197.5 Å²
61 | 215.5 |  | C=C(C)C(=O)OCC(O)COc1ccc(C(C)(C)c2ccc(OCC(O)COC(=O)C(=C)C)cc2)cc1 (centres undefined) [Bisphenol A glycidyl methacrylate] | 
62 |  | 161.9 | CC(C)(c1ccc(O)cc1)c1ccc(O)cc1 [Bisphenol A] | 
